The values that follow come from the NIST ThermoML archive (doi:10.1021/je025534p).

The conditions of this series: Liquid, Ebulliometric method (Recirculating still).

± gives the expanded uncertainty stated by the source.

Turning to `CC1COC(C)O1` (centres undefined) [2,4-dimethyl-1,3-dioxolane], the “vapor or sublimation pressure” value (298 K) is given as 8.89 ± 4 kPa; the “vapor or sublimation pressure” value (303 K) is 11.17 ± 4 kPa; the “vapor or sublimation pressure” value (308 K) turned out to be 13.9 ± 4 kPa; the “vapor or sublimation pressure” value (313 K) is 17.17 ± 4 kPa; the “vapor or sublimation pressure” value (318 K) was determined as 21.04 ± 4 kPa; the “vapor or sublimation pressure” value (323 K) was 25.62 ± 4 kPa. Moreover, the “vapor or sublimation pressure” value runs as follows: (328 K) 30.97 ± 4 kPa; (333 K) 37.21 ± 4 kPa; (338 K) 44.43 ± 4 kPa; (343 K) 52.75 ± 4 kPa; (348 K) 62.29 ± 4 kPa; (353 K) 73.16 ± 4 kPa. Also, the “vapor or sublimation pressure” value (358 K) was 85.51 ± 4 kPa, the “vapor or sublimation pressure” value (363 K) is 99.46 ± 4 kPa and the “vapor or sublimation pressure” value (366 K) came out at 99 ± 9.9 kPa.
With `CC1OCCO1` [2-methyl-1,3-dioxolane], the “vapor or sublimation pressure” value was 11.29 ± 4 kPa (298 K); 14.2 ± 4 kPa (303 K); 17.72 ± 4 kPa (308 K); 21.98 ± 4 kPa (313 K); 27.07 ± 4 kPa (318 K); 33.15 ± 4 kPa (323 K). Besides, the “vapor or sublimation pressure” value runs as follows: (328 K) 40.35 ± 4 kPa; (333 K) 48.83 ± 4 kPa; (338 K) 58.78 ± 4 kPa; (343 K) 70.39 ± 4 kPa; (348 K) 83.87 ± 4 kPa; (353 K) 99.46 ± 4 kPa. Also, the “vapor or sublimation pressure” value (356 K) is listed as 99 ± 9.9 kPa.
Turning to `O` [water], the “vapor or sublimation pressure” value (373 K) worked out at 99 ± 9.9 kPa.

The vapor or sublimation pressure is the equilibrium pressure above the liquid or solid.
